Assays:
Format in all cases: cell-based
WT HIV-1 = assay: single-round infectivity assay, WT HIV-1 IN vector; settings: Human immunodeficiency virus 1, read-out: EC50 values WT, vector carrying WT HIV-1 IN, single round infection, n = 4; new compounds
Protocol: (§1) Figure 2 Antiviral activities of the new compounds against RAL-resistant mutants. The EC50 values were determined using a vector that carries WT HIV-1 IN and the RAL-resistant mutants in a single round infection assay. […] Error bars represent the standard deviations of independent experiments, n = 4, performed in triplicate. The graph has a maximum value of 550 nM.
(§2) WT and mutant HIV-1 viral vectors were used in single-round infectivity assays to determine the antiviral potencies (EC50 values) of the compounds and the effects of the mutants on the EC50 values as previously described.[30],[54] Single round infectivity measurements were determined as done previously.[38]
(§3) The vector pNLNgoMIVR-ΔENV.LUC has been described previously.[26] To produce the new IN mutants used in this study, the IN open reading frame was removed from pNLNgoMIVR-ΔENV.LUC by digestion with KpnI and SalI, and the resulting fragment was inserted between the KpnI and SalI sites of pBluescript KS+. Using that construct as the wild-type template, we prepared the following HIV-1 IN mutants using the QuikChange II XL site directed mutagenesis kit (Agilent Technologies, Santa Clara, CA) protocol: N117A, N117H, P142A, P142H, P142S, Y143C, Y143H, S230R, R231G, and R231K. The following sense oligonucleotides were used with matching cognate antisense oligonucleotides (not shown) (Integrated DNA Technologies, Coralville, IA) in the mutagenesis: N117A, 5′-[…]-3′; N117H, 5′-[…]-3′; P142A, 5′-[…]-3′; P142H, 5′-[…]-3′; P142S, 5′-[…]-3′; Y143C, 5′- […]-3′; Y143H, 5′-[…]-3′; S230R, 5′- […]-3′; R231G, 5′-[…]-3′; R231K, 5′-[…]-3′.

HIV-1 IN mutant Y143R = assay: single-round infectivity assay, Y143R IN mutant
Protocol: as §1, §2, §3

HIV-1 IN mutant N155H = assay: single-round infectivity assay, N155H IN mutant
Protocol: as §1, §2, §3

[1] = test system: HIV-1 IN double mutant G140S/Q148H; assay: single-round infectivity assay, G140S/Q148H IN double mutant
Protocol: as §1, §2, §3

HIV-1 IN mutant N117A = assay: single-round infectivity assay, N117A IN mutant
Protocol: (§4) The EC50 values were determined using a vector that carries the IN mutant in a single round infection assay. […] Error bars represent the standard deviations of independent experiments, n = 4, performed in triplicate.
as §2, §3

HIV-1 IN mutant N117H = assay: single-round infectivity assay, N117H IN mutant
Protocol: as §4, §2, §3

HIV-1 IN mutant G118R = assay: single-round infectivity assay, G118R IN mutant
Protocol: as §4, §2, §3

HIV-1 IN mutant S119R = assay: single-round infectivity assay, S119R IN mutant
Protocol: as §4, §2, §3

HIV-1 IN mutant Y143C = assay: single-round infectivity assay, Y143C IN mutant
Protocol: as §4, with “Figure 4 Mutations in the β5-α3 loop affect the antiviral potencies of the new compounds. The” for “The”
as §2, §3

HIV-1 IN mutant Y143H = assay: single-round infectivity assay, Y143H IN mutant
Protocol: as §4, with “Figure 4 Mutations in the β5-α3 loop affect the antiviral potencies of the new compounds. The” for “The”
as §2, §3

HIV-1 IN mutant P142A = assay: single-round infectivity assay, P142A IN mutant
Protocol: as §4, with “Figure 4 Mutations in the β5-α3 loop affect the antiviral potencies of the new compounds. The” for “The”
as §2, §3

HIV-1 IN mutant P142H = assay: single-round infectivity assay, P142H IN mutant
Protocol: as §4
Single round infectivity measurements were determined as done previously.[38]
as §3

HIV-1 IN mutant P142S = assay: single-round infectivity assay, P142S IN mutant
Protocol: as §4, with “Figure 4 Mutations in the β5-α3 loop affect the antiviral potencies of the new compounds. The” for “The”
as §2, §3

HIV-1 IN mutant S230R = assay: single-round infectivity assay, S230R IN mutant
Protocol: as §4, with “Figure 5 Antiviral potencies of the new compounds against IN with mutations in the […]. The” for “The”
as §2, §3

HIV-1 IN mutant R231G = assay: single-round infectivity assay, R231G IN mutant
Protocol: as §4, with “Figure 5 Antiviral potencies of the new compounds against IN with mutations in the […]. The” for “The”
as §2, §3

HIV-1 IN mutant R231K = assay: single-round infectivity assay, R231K IN mutant
Protocol: as §4, with “Figure 5 Antiviral potencies of the new compounds against IN with mutations in the […]. The” for “The”
as §2, §3

[2] = fold change in EC50, IN mutant versus WT HIV-1

How did the EC50 (WT HIV-1) turn out when O=C(NCc1ccc(F)cc1F)c1c(O)c2c(CO)ccnc2n(O)c1=O [5j, N-(2,4-Difluorobenzyl)-1,4-dihydroxy-5-(hydroxymethyl)-2-oxo-1,2-dihydro-1,8-naphthyridine-3-carboxamide] was run?
Its EC50 is 7.3 ± 0.6 nM.

And the “ratio of the EC50s (our compound relative to DTG) against Y143R” value (HIV-1 IN mutant Y143R; EC50 compound / EC50 DTG)?
The value was 0.6.

What about the EC50 (HIV-1 IN mutant Y143R; Human immunodeficiency virus 1, read-out: EC50 values Y143R) of the same compound?
The EC50 was 2.6 ± 0.4 nM.

And the “FC Y143R” value (HIV-1 IN mutant Y143R; [2])?
The value was 0.4.

What about the “ratio of the EC50s (our compound relative to DTG) against N155H” value (HIV-1 IN mutant N155H; EC50 compound / EC50 DTG) of the same compound?
The value was 4.1.

What about the EC50 (HIV-1 IN mutant N155H; Human immunodeficiency virus 1, read-out: EC50 values N155H) of the same compound?
Its EC50 is 14.9 ± 3.6 nM.

And the “FC N155H” value (HIV-1 IN mutant N155H; [2])?
The value was 2.0.

What about the “ratio of the EC50s (our compound relative to DTG) against G140S/Q148H” value ([1]; EC50 compound / EC50 DTG) of the same compound?
The value was 2.5.

What about the EC50 ([1]; Human immunodeficiency virus 1, read-out: EC50 values G140S/Q148H) of the same compound?
The EC50 was 14.7 ± 1.1 nM.

And the “FC G140S/Q148H” value [1, 2]?
The value was 2.0.

What about the “ratio of the EC50s (our compound relative to DTG) against N117A” value (HIV-1 IN mutant N117A; EC50 compound / EC50 DTG) of the same compound?
The value was 26.8.

And the EC50 (HIV-1 IN mutant N117A; Human immunodeficiency virus 1, read-out: EC50 values N117A)?
The EC50 was 13.4 ± 1.5 nM.

And the “FC N117A” value (HIV-1 IN mutant N117A; [2])?
The value was 1.8.

What about the “ratio of the EC50s (our compound relative to DTG) against N117H” value (HIV-1 IN mutant N117H; EC50 compound / EC50 DTG) of the same compound?
The value was 1.4.

And the EC50 (HIV-1 IN mutant N117H; Human immunodeficiency virus 1, read-out: EC50 values N117H)?
Its EC50 is 3.4 ± 0.4 nM.

And the “FC N117H” value (HIV-1 IN mutant N117H; [2])?
The value was 0.5.

And the “ratio of the EC50s (our compound relative to DTG) against G118R” value (HIV-1 IN mutant G118R; EC50 compound / EC50 DTG)?
Its value is 2.3.

And the EC50 (HIV-1 IN mutant G118R; Human immunodeficiency virus 1, read-out: EC50 values G118R)?
The EC50 was 30 ± 5 nM.

And the “ratio of the EC50s (our compound relative to DTG) against S119R” value (HIV-1 IN mutant S119R; EC50 compound / EC50 DTG)?
Its value is 3.0.

And the EC50 (HIV-1 IN mutant S119R; Human immunodeficiency virus 1, read-out: EC50 values S119R)?
The EC50 was 7 ± 0.2 nM.

And the “FC S119R” value (HIV-1 IN mutant S119R; [2])?
Its value is 1.0.

What about the “ratio of the EC50s (our compound relative to DTG) against Y143C” value (HIV-1 IN mutant Y143C; EC50 compound / EC50 DTG) of the same compound?
Its value is 1.7.

What about the EC50 (HIV-1 IN mutant Y143C; Human immunodeficiency virus 1, read-out: EC50 values Y143C, single round infection, n = 4) of the same compound?
The EC50 was 2.4 ± 0.1 nM.

What about the “FC Y143C” value (HIV-1 IN mutant Y143C; [2]) of the same compound?
The value was 0.3.

What about the “ratio of the EC50s (our compound relative to DTG) against Y143H” value (HIV-1 IN mutant Y143H; EC50 compound / EC50 DTG) of the same compound?
Its value is 1.2.

And the EC50 (HIV-1 IN mutant Y143H; Human immunodeficiency virus 1, read-out: EC50 values Y143H, single round infection, n = 4)?
Its EC50 is 2.6 ± 0.2 nM.

And the “FC Y143H” value (HIV-1 IN mutant Y143H; [2])?
Its value is 0.4.

And the “ratio of the EC50s (our compound relative to DTG) against P142A” value (HIV-1 IN mutant P142A; EC50 compound / EC50 DTG)?
The value was 1.9.

What about the EC50 (HIV-1 IN mutant P142A; Human immunodeficiency virus 1, read-out: EC50 values P142A) of the same compound?
Its EC50 is 4.7 ± 0.1 nM.

And the “ratio of the EC50s (our compound relative to DTG) against P142H” value (HIV-1 IN mutant P142H; EC50 compound / EC50 DTG)?
Its value is 1.3.

And the EC50 (HIV-1 IN mutant P142H; Human immunodeficiency virus 1, read-out: EC50 values P142H)?
Its EC50 is 3.5 ± 0.1 nM.

What about the “ratio of the EC50s (our compound relative to DTG) against P142S” value (HIV-1 IN mutant P142S; EC50 compound / EC50 DTG) of the same compound?
Its value is 1.6.

What about the EC50 (HIV-1 IN mutant P142S; Human immunodeficiency virus 1, read-out: EC50 values P142S) of the same compound?
Its EC50 is 3.5 ± 0.5 nM.

What about the “ratio of the EC50s (our compound relative to DTG) against S230R” value (HIV-1 IN mutant S230R; EC50 compound / EC50 DTG) of the same compound?
The value was 1.7.

What about the EC50 (HIV-1 IN mutant S230R; Human immunodeficiency virus 1, read-out: EC50 values S230R) of the same compound?
The EC50 was 7.7 ± 1 nM.

And the “FC S230R” value (HIV-1 IN mutant S230R; [2])?
The value was 1.1.

And the “ratio of the EC50s (our compound relative to DTG) against R231G” value (HIV-1 IN mutant R231G; EC50 compound / EC50 DTG)?
Its value is 1.8.

And the EC50 (HIV-1 IN mutant R231G; Human immunodeficiency virus 1, read-out: EC50 values R231G)?
Its EC50 is 2.5 ± 0.6 nM.

And the “FC R231G” value (HIV-1 IN mutant R231G; [2])?
The value was 0.3.

What about the “ratio of the EC50s (our compound relative to DTG) against R231K” value (HIV-1 IN mutant R231K; EC50 compound / EC50 DTG) of the same compound?
Its value is 1.4.

And the EC50 (HIV-1 IN mutant R231K; Human immunodeficiency virus 1, read-out: EC50 values R231K, single round infection, n = 4)?
The EC50 was 5.9 ± 0.2 nM.

And the “FC R231K” value (HIV-1 IN mutant R231K; [2])?
Its value is 0.8.

From paper PMC8205226, “HIV-1 Integrase Inhibitors with Modifications That Affect Their Potencies against Drug Resistant Integrase Mutants” (ACS Infectious Diseases, 2021)
